ChEMBL document CHEMBL3639058, “Glycine compound” (2014)
pIC50: −log10 of the molar value.

Assays:
[1] = biological target: T1, Amine oxidase [copper-containing] 3 (Rattus norvegicus, UniProt O08590); experiment: (§1) Inhibition Assay: A rat VAP-enzyme 1 (SSAO) activity was measured by a radiochemistry-enzymatic assay using 14C-benzylamine as an artificial substrate. An enzyme suspension prepared from CHO (Chinese Hamster Ovary) cells stably expressing a rat VAP-enzyme 1 (SSAO) was preincubated with the compound of the present invention in a 96-well microplate at room temperature for 30 minutes. Subsequently, the enzyme suspension was incubated with 14C-benzylamine (a final concentration of 1×10−5 mol/L) to a final volume of […] at 37° C. for 1 hour. The enzymatic reaction was stopped by the addition of 2 mol/L (50 μL) of citric acid. The oxidation products were extracted directly in a 200-μL toluene scintillator, and the radioactivity was measured with a scintillation spectrometer.
T1 sequence (O08590 whole entry): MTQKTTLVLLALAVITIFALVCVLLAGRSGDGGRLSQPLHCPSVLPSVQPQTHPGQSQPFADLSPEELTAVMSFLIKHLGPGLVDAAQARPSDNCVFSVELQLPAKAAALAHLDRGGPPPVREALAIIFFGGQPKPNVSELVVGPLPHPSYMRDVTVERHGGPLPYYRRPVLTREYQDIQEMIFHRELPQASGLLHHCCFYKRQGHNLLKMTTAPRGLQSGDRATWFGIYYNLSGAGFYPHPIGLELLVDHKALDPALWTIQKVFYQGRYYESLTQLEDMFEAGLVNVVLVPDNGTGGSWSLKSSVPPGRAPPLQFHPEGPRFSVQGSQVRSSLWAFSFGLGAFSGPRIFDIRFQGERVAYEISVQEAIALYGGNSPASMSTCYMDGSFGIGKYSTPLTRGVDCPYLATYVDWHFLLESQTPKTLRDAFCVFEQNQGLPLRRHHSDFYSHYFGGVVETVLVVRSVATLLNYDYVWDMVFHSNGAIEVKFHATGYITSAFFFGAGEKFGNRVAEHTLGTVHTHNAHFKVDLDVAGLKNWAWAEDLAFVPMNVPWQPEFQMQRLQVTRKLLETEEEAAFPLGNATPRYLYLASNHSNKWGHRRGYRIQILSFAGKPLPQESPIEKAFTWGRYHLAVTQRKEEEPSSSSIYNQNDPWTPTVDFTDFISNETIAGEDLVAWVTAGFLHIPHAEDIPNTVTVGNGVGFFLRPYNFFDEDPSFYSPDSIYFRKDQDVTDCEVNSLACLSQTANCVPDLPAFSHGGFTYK

[2] = biological target: T2, Amine oxidase [copper-containing] 3 (Homo sapiens, UniProt Q16853); experiment: as §1, with “human VAP-1 enzyme” for “rat VAP-enzyme 1”
T2 sequence (Q16853 whole entry): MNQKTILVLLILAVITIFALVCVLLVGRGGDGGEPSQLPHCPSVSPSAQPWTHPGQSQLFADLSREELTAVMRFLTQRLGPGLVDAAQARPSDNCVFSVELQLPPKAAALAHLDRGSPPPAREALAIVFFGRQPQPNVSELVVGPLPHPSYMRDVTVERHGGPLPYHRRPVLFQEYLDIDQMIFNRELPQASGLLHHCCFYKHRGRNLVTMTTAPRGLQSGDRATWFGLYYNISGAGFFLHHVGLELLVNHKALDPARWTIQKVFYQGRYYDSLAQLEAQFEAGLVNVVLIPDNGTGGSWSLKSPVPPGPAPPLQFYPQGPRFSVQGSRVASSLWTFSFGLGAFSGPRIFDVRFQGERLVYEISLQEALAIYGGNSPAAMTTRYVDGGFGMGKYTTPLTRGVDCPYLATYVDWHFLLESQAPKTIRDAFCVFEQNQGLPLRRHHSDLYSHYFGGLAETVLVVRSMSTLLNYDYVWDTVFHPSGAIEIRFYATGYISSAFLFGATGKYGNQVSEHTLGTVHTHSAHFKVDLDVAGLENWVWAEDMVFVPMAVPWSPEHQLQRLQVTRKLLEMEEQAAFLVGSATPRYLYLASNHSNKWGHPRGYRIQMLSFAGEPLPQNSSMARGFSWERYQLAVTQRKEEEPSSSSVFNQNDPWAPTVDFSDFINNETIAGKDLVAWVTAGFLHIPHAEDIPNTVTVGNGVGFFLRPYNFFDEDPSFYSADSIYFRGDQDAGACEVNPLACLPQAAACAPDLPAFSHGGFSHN

pIC50 [1] | pIC50 [2] | SMILES
8.28 | 8.03 | Cc1cc(CCC(=O)O)cnc1N1CCN(c2ncc(-c3cccc(CN(C)C(=O)CN)c3)cn2)CC1
7.21 |  | C[C@@H]1CN(c2ncc(-c3cccc(CN(C)C(=O)CN)c3)cn2)C[C@H](C)O1
